Experimental data: ChEMBL document CHEMBL3046164, “A facile synthesis of some 3-cyano-1,4,6-trisubstituted-2(1H)-pyridinones and their biological evaluation as anticancer agents” (2011)

Key:
Assay type in all cases: functional
SNB-75 [1] = experiment: Cytotoxicity against Homo sapiens (human) SNB75 cells after 48 hr by SRB assay; settings: SNB-75, 48 h
UACC-62 = experiment: Cytotoxicity against Homo sapiens (human) UACC62 cells after 48 hr by SRB assay; settings: UACC-62, 48 h
SF-539 = experiment: Cytotoxicity against Homo sapiens (human) SF539 cells after 48 hr by SRB assay; settings: SF-539, 48 h
SF-268 = experiment: Cytotoxicity against Homo sapiens (human) SF268 cells after 48 hr by SRB assay; settings: SF-268, 48 h
HCC 2998 [2] = experiment: Cytotoxicity against Homo sapiens (human) HCC2998 cells after 48 hr by SRB assay; settings: HCC 2998, 48 h
HOP-92 [3] = experiment: Cytotoxicity against Homo sapiens (human) HOP92 cells after 48 hr by SRB assay; settings: HOP-92, 48 h
EKVX [4] = experiment: Cytotoxicity against Homo sapiens (human) EKVX cells after 48 hr by SRB assay
HOP-62 [5] = experiment: Cytotoxicity against Homo sapiens (human) HOP62 cells after 48 hr by SRB assay; settings: HOP-62, 48 h
SR = experiment: Cytotoxicity against Homo sapiens (human) SR cells after 48 hr by SRB assay
RPMI-8226 [6] = experiment: Cytotoxicity against Homo sapiens (human) RPMI8226 cells after 48 hr by SRB assay; settings: Homo sapiens, RPMI-8226, 48 h
CCRF-CEM [7] = experiment: Cytotoxicity against Homo sapiens (human) CCRF-CEM cells after 48 hr by SRB assay
HL-60(TB) [8] = experiment: Cytotoxicity against Homo sapiens (human) HL-60(TB) cells after 48 hr by SRB assay; settings: HL-60, 48 h
U-251 = experiment: Growth inhibition of Homo sapiens (human) U251 cells at 10 uM after 48 hr by SRB assay; settings: U-251, 48 h, read-out: GI
SNB-75 [9] = experiment: Growth inhibition of Homo sapiens (human) SNB75 cells at 10 uM after 48 hr by SRB assay; settings: SNB-75, 48 h, read-out: GI
SK-MEL-5 = experiment: Growth inhibition of Homo sapiens (human) SK-MEL-5 cells at 10 uM after 48 hr by SRB assay; settings: SK-MEL-5, 48 h, read-out: GI
SF-295 = experiment: Growth inhibition of Homo sapiens (human) SF295 cells at 10 uM after 48 hr by SRB assay; settings: SF-295, 48 h, read-out: GI
M14 = experiment: Growth inhibition of Homo sapiens (human) M14 cells at 10 uM after 48 hr by SRB assay; settings: M14, 48 h, read-out: GI
LOX IMVI = experiment: Growth inhibition of Homo sapiens (human) LOXIMVI cells at 10 uM after 48 hr by SRB assay; settings: read-out: GI
CAKI-1 = experiment: Growth inhibition of Homo sapiens (human) CAKI-1 cells at 10 uM after 48 hr by SRB assay; settings: CAKI-1, 48 h, read-out: GI
RPMI-8226 [10] = experiment: Growth inhibition of Homo sapiens (human) RPMI8226 cells at 10 uM after 48 hr by SRB assay; settings: RPMI-8226, 48 h, read-out: GI
786-0 = experiment: Growth inhibition of Homo sapiens (human) 786-0 cells at 10 uM after 48 hr by SRB assay; settings: 786-0, 48 h, read-out: GI
MDA-MB-435 = experiment: Growth inhibition of Homo sapiens (human) MDA-MB-435 cells at 10 uM after 48 hr by SRB assay; settings: MDA-MB-435, 48 h, read-out: GI
HCC 2998 [11] = experiment: Growth inhibition of Homo sapiens (human) HCC2998 cells at 10 uM after 48 hr by SRB assay; settings: HCC 2998, 48 h, read-out: GI
COLO 205 = experiment: Growth inhibition of Homo sapiens (human) COLO205 cells at 10 uM after 48 hr by SRB assay; settings: COLO 205, 48 h, read-out: GI
NCI-H460 = experiment: Growth inhibition of Homo sapiens (human) NCI-H460 cells at 10 uM after 48 hr by SRB assay; settings: NCI-H460, 48 h, read-out: GI
HOP-62 [12] = experiment: Growth inhibition of Homo sapiens (human) HOP62 cells at 10 uM after 48 hr by SRB assay; settings: HOP-62, 48 h, read-out: GI
A498 [13] = experiment: Growth inhibition of Homo sapiens (human) A498 cells at 10 uM after 48 hr by SRB assay; settings: A498, 48 h, read-out: GI
EKVX [14] = experiment: Growth inhibition of Homo sapiens (human) EKVX cells at 10 uM after 48 hr by SRB assay; settings: read-out: GI
HL-60(TB) [15] = experiment: Growth inhibition of Homo sapiens (human) HL-60(TB) cells at 10 uM after 48 hr by SRB assay; settings: HL-60, 48 h, read-out: GI
CCRF-CEM [16] = experiment: Growth inhibition of Homo sapiens (human) CCRF-CEM cells at 10 uM after 48 hr by SRB assay; settings: read-out: GI
K562 = experiment: Growth inhibition of Homo sapiens (human) K562 cells at 10 uM after 48 hr by SRB assay; settings: K562, 48 h, read-out: GI
HOP-92 [17] = experiment: Growth inhibition of Homo sapiens (human) HOP92 cells at 10 uM after 48 hr by SRB assay; settings: HOP-92, 48 h, read-out: GI
T47D = experiment: Cytotoxicity against Homo sapiens (human) T47D cells after 48 hr by SRB assay
A549 = experiment: Growth inhibition of Homo sapiens (human) A549 cells at 10 uM after 48 hr by SRB assay; settings: A549, 48 h, read-out: GI
BT-549 = experiment: Cytotoxicity against Homo sapiens (human) BT549 cells after 48 hr by SRB assay; settings: BT-549, 48 h
MDA-MB-231 = experiment: Cytotoxicity against Homo sapiens (human) MDA-MB-231 cells after 48 hr by SRB assay; settings: MDA-MB-231, 48 h
UO-31 = experiment: Cytotoxicity against Homo sapiens (human) UO31 cells after 48 hr by SRB assay; settings: UO-31, 48 h
OVCAR-4 = experiment: Cytotoxicity against Homo sapiens (human) OVCAR4 cells after 48 hr by SRB assay; settings: OVCAR-4, 48 h
A498 [18] = experiment: Cytotoxicity against Homo sapiens (human) A498 cells after 48 hr by SRB assay; settings: A498, 48 h
OVCAR-3 = experiment: Cytotoxicity against Homo sapiens (human) OVCAR3 cells after 48 hr by SRB assay; settings: OVCAR-3, 48 h
IGROV-1 = experiment: Cytotoxicity against Homo sapiens (human) IGROV1 cells after 48 hr by SRB assay; settings: IGROV-1, 48 h

Work on `Cn1cccc1-c1cc(-c2ccc(Br)cc2)n(C(=S)Nc2ccc(F)cc2)c(=O)c1C#N` yielded a GI50 (SNB-75 [1]) of 38 µM, a GI50 (UACC-62) of 72.4 µM and a GI50 (SF-539) of over 100 µM. The GI50 (SF-268) was 20.4 µM, the GI50 (HCC 2998 [2]) was over 100 µM and the GI50 (HOP-92 [3]) was over 100 µM. The GI50 (EKVX [4]) was 0.01 µM, the TGI (EKVX [4]) was 0.03 µM and the GI50 (HOP-62 [5]) was 37.1 µM. The GI50 (SR) was over 100 µM, the GI50 (RPMI-8226 [6]) was over 100 µM and the GI50 (CCRF-CEM [7]) was over 100 µM. The GI50 (HL-60(TB) [8]) was 14.5 µM, the inhibition of growth at 10 µM (U-251) was 26.3% and the inhibition of growth at 10 µM (SNB-75 [9]) was 42.7%. The inhibition of growth at 10 µM (SK-MEL-5) was 33.5%, the inhibition of growth at 10 µM (SF-295) was 40.2% and the inhibition of growth at 10 µM (M14) was 29.1%. The inhibition of growth at 10 µM (LOX IMVI) was 23%, the inhibition of growth at 10 µM (CAKI-1) was 30.3% and the inhibition of growth at 10 µM (RPMI-8226 [10]) was 59.2%. The inhibition of growth at 10 µM (786-0) was 28.8%, the inhibition of growth at 10 µM (MDA-MB-435) was 35.1% and the inhibition of growth at 10 µM (HCC 2998 [11]) was 27.6%. It also gave an inhibition of growth at 10 µM (COLO 205) of 45.6%, an inhibition of growth at 10 µM (NCI-H460) of 31.6% and an inhibition of growth at 10 µM (HOP-62 [12]) of 34.5%. It also gave an inhibition of growth at 10 µM (A498 [13]) of 27.6%, an inhibition of growth at 10 µM (EKVX [14]) of 29.7% and an inhibition of growth at 10 µM (HL-60(TB) [15]) of 82.3%. For the same compound, the inhibition of growth at 10 µM (CCRF-CEM [16]) was 48.3%, the inhibition of growth at 10 µM (K562) was 60% and the inhibition of growth at 10 µM (HOP-92 [17]) was 39.6%. It also gave a GI50 (T47D) of over 100 µM, an inhibition of growth at 10 µM (A549) of 47.8% and a GI50 (BT-549) of over 100 µM. The GI50 (MDA-MB-231) was over 100 µM, the GI50 (UO-31) was 13.8 µM and the LC50 (UO-31) was 54.9 µM. For the same compound, the TGI (UO-31) was 27.5 µM, the GI50 (OVCAR-4) was over 100 µM and the GI50 (A498 [18]) was 17.8 µM. For the same compound, the GI50 (OVCAR-3) was over 100 µM and the GI50 (IGROV-1) was 22.9 µM.
